# Measured values: patent US12624003B2, “Carboxylic acid containing indanyl compounds for the treatment of neurodegenerative diseases” (Celgene Corporation, priority 2020, dated 2026)
# Molecular target: T1, S1P5 (Homo sapiens, UniProt Q9H228)
# T1 construct: expressed in transfected cells; host or cells: CHO cells (membranes)
# Assay: [35S]-GTPγS functional binding assay on CHO-S1P5 membranes
# Type: biochemical
# Details: membranes of CHO cells expressing recombinant S1P5 receptors; measure of S1P5 agonism
# Procedure: CHO cells expressing recombinant S1P5 receptors were cultured in 500 cm^2 culture trays and, once confluent, rinsed and detached with cell-lifting buffer (10 mM HEPES, 154 mM NaCl, 6.85 mM EDTA, pH 7.4). Cells were then pelleted by centrifugation, resuspended, and homogenized in membrane preparation buffer (10 mM HEPES and 10 mM EDTA, pH 7.4) using a Polytron PT 1200E homogenizer (Kinematica, Luzern, Switzerland). Cellular proteins were pelleted by centrifugation at 48,000×g at 4° C. for 30 minutes. The resulting supernatant was discarded, and the pellet was re-suspended again in membrane preparation buffer, homogenized for a second time, and then centrifuged again as described above. The final cellular protein pellet was suspended in ice cold resuspension buffer (10 mM HEPES and 0.1 mM EDTA, pH 7.4), divided into aliquots, and stored at −80° C. until use.
# Functional binding assays for [^35S]-GTPγS were performed in 96-well non-binding surface plates with a final volume of 200 μL. The test compounds were serially diluted in DMSO and added to assay plates using a Tecan D300E digital printer with a total volume of 0.4 μL. The control sphingosine-1-phosphate (S1P) was prepared separately by preparing a 400 μM stock solution from a 100 nmol pellet of SIP in 10 mM Na2CO3 with 2% s-cyclodextrin. The serial dilution of S1P was done using complete assay buffer (20 mM HEPES, 10 mM MgCl2, 100 mM NaCl, 1 mM EDTA, 0.1% fatty acid free bovine serum albumin (BSA), and 30 μg/mL saponin, pH 7.4) and transferred to wells already containing 0.4 μL DMSO. All the wells were then loaded to a total volume of 40 μL of complete assay buffer, except the non-specific binding (NSB) wells. For NSB wells, 40 μL/well of 50 μM GTPγS (Sigma Aldrich, cat #G8634, St. Louis, MO) was added to wells containing 0.4 μL of DMSO. The assay was started by the addition of 120 μL/well of CHO-S1P receptor membrane solution containing 40 μg/mL of membrane protein, 16.67 μM guanosine diphosphate (GDP; Sigma Aldrich, cat #G7127, St. Louis, MO), and 2.5 mg/mL of WGA PVT SPA beads in complete buffer. Assay plates were then sealed and incubated at room temperature with gentle agitation for 30 minutes. Next, 40 μL/well of 1 nM of [^35S]-GTPγS (PerkinElmer, cat #NEG030X250UC, Waltham, MA) in basic assay buffer (20 mM HEPES, 10 mM MgCl2, 100 mM NaCl, and 1 mM EDTA, pH 7.4) was added to the assay plates to yield a final concentration of […] and the plates were further incubated for 40 minutes at room temperature with gentle agitation. The assay was terminated by centrifugation of the plates at 1000 rpm for 3 minutes using an Eppendorf 5810R centrifuge (Eppendorf, Hamburg, Germany) and G protein bound radioactivity was quantitated using a MicroBeta2 microplate scintillation counter (PerkinElmer, Waltham, MA). As G protein bound radioactivity directly correlates to receptor activation and coupling to the G protein, this assay is a measure of S1P5 agonism.
# T1 sequence (Q9H228 whole entry, species assumed): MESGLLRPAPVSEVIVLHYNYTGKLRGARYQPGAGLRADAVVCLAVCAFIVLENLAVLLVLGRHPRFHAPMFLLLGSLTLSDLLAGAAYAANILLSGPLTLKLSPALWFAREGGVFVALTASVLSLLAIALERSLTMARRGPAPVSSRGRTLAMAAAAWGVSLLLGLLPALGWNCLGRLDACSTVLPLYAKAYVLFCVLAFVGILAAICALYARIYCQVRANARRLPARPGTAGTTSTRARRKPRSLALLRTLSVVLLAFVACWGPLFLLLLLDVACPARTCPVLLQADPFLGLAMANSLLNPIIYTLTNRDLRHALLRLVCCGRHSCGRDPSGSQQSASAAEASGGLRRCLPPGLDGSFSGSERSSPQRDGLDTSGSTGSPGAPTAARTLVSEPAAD
row,Structure (SMILES),EC50 [nM]
1,"O=C(O)C1CCN(C2CCc3cc(CCc4c(F)cccc4F)ccc32)CC1 (single isomer, unassigned) [Compound 28b, 1-(5-(2,6-difluorophenethyl)-2,3-dihydro-1H-inden-1-yl)piperidine-4-carboxylic acid]",10 to 100
2,"O=C(O)[C@@H]1CCN(C2CCc3cc(C#Cc4cccc(F)c4)ccc32)C1 (single isomer, unassigned) [Compound 14b]",≤ 10
3,"O=C(O)C1CCN(C2CCc3cc(CCc4cccc(F)c4)ccc32)CC1 (single isomer, unassigned) [Compound 26b, 1-(5-(3-fluorophenethyl)-2,3-dihydro-1H-inden-1-yl)piperidine-4-carboxylic acid]",10 to 100
4,"O=C(O)C1CCN(C2CCc3cc(CCc4cccc(F)c4)ccc32)CC1 (single isomer, unassigned) [Compound 26a, 1-(5-(3-fluorophenethyl)-2,3-dihydro-1H-inden-1-yl)piperidine-4-carboxylic acid]",100 to 1000
5,"O=C(O)[C@H]1CCCCN1C1CCc2cc(C#Cc3cccc(F)c3)ccc21 (single isomer, unassigned) [Compound 9b]",1000 to 10000
6,"O=C(O)[C@H]1CCN(C2CCc3cc(C#Cc4cccc(F)c4)ccc32)C1 (single isomer, unassigned) [Compound 13b]",10 to 100
7,"O=C(O)[C@H]1[C@@H]2CN(C3CCc4cc(C#Cc5cccc(F)c5)ccc43)C[C@@H]21 (stereo partly drawn) [Compound 16, (1R,5S,6r)-3-(5-((3-fluorophenyl)ethynyl)-2,3-dihydro-1H-inden-1-yl)-3-azabicyclo[3.1.0]-hexane-6-carboxylic acid]",100 to 1000
8,"O=C(O)C1CCN(C2CCc3cc(C#Cc4cccc(F)c4)ccc32)CC12CC2 (stereo not drawn) [Compound 12, 5-(5-((3-fluorophenyl)ethynyl)-2,3-dihydro-1H-inden-1-yl)-5-azaspiro[2.5]octane-8-carboxylic acid]",10 to 100
9,"O=C(O)C1CC2(C1)CN(C1CCc3cc(C#Cc4c(Cl)cccc4Cl)ccc31)C2 (stereo not drawn) [Compound 21, 2-(5-((2,6-dichlorophenyl)ethynyl)-2,3-dihydro-1H-inden-1-yl)-2-azaspiro[3.3]heptane-6-carboxylic acid]",10 to 100
10,"O=C(O)C1(F)CCN(C2CCc3cc(C#Cc4c(Cl)cccc4Cl)ccc32)CC1 (single isomer, unassigned) [Compound 3a, 1-(5-((2,6-dichlorophenyl)ethynyl)-2,3-dihydro-1H-inden-1-yl)-4-fluoropiperidine-4-carboxylic acid]",≤ 10
11,"O=C(O)[C@@H]1CCCN(C2CCc3cc(C#Cc4cccc(F)c4)ccc32)C1 (single isomer, unassigned) [Compound 7a]",10 to 100
12,"O=C(O)[C@@H]1CCCCN1C1CCc2cc(C#Cc3cccc(F)c3)ccc21 (single isomer, unassigned) [Compound 8b]",1000 to 10000
13,"O=C(O)C1CCN(C2CCc3cc(C#Cc4ccccc4F)ccc32)CC1 (single isomer, unassigned) [Compound 6a, 1-(5-((2-fluorophenyl)ethynyl)-2,3-dihydro-1H-inden-1-yl)piperidine-4-carboxylic acid]",10 to 100
14,"CC1(C)CN(C2CCc3cc(C#Cc4cccc(F)c4)ccc32)CCC1C(=O)O (stereo not drawn) [Compound 5, 1-(5-((3-fluorophenyl)ethynyl)-2,3-dihydro-1H-inden-1-yl)-3,3-dimethylpiperidine-4-carboxylic acid]",100 to 1000
15,"O=C(O)C1CCN(C2CCc3cc(C#Cc4ccccc4F)ccc32)CC1 (single isomer, unassigned) [Compound 6b, 1-(5-((2-fluorophenyl)ethynyl)-2,3-dihydro-1H-inden-1-yl)piperidine-4-carboxylic acid]",≤ 10
16,"O=C(O)[C@@H]1[C@@H]2CN(C3CCc4cc(C#Cc5cccc(F)c5)ccc43)C[C@@H]21 (stereo partly drawn) [Compound 17, (1R,5S,6s)-3-(5-((3-fluorophenyl)ethynyl)-2,3-dihydro-1H-inden-1-yl)-3-azabicyclo[3.1.0]-hexane-6-carboxylic acid]",10 to 100

# The next lines start with the values.
row,EC50 [nM],Structure (SMILES)
1,10 to 100,"O=C(Cc1ccc2c(c1)CCC2N1CCC(C(=O)O)CC1)c1c(Cl)cccc1Cl (single isomer, unassigned) [Compound 24, 1-(5-(2-(2,6-dichlorophenyl)-2-oxoethyl)-2,3-dihydro-1H-inden-1-yl)piperidine-4-carboxylic acid]"
2,≤ 10,"O=C(O)C1CCN(C2CCc3cc(C#Cc4cccc(F)c4)ccc32)CC1 (single isomer, unassigned) [Compound 4b, 1-(5-((3-fluorophenyl)ethynyl)-2,3-dihydro-1H-inden-1-yl)piperidine-4-carboxylic acid]"
3,100 to 1000,"COc1cc(OC)cc(-c2ccc3c(c2)CCC3N2CCC(C(=O)O)CC2)c1 (single isomer, unassigned) [Compound 40, 1-(5-(3,5-dimethoxyphenyl)-2,3-dihydro-1H-inden-1-yl)piperidine-4-carboxylic acid]"
4,100 to 1000,"O=C(O)C1CCN(C2CCc3cc(-c4ccc5c(c4)OCC5)ccc32)CC1 (single isomer, unassigned) [Compound 41, 1-(5-(2,3-dihydrobenzofuran-6-yl)-2,3-dihydro-1H-inden-1-yl)piperidine-4-carboxylic acid]"
5,10 to 100,"O=C(O)C1CC2(C1)CN(C1CCc3cc(-c4ccc(C5CC5)c(Cl)c4)ccc31)C2 (stereo not drawn) [Compound 39, 2-(5-(3-chloro-4-cyclopropylphenyl)-2,3-dihydro-1H-inden-1-yl)-2-azaspiro[3.3]heptane-6-carboxylic acid]"
6,≤ 10,"O=C(O)C1CN(C2CCc3cc(-c4ccc(C5CC5)c(Cl)c4)ccc32)C1 (single isomer, unassigned) [Compound 30b, 1-(5-(3-chloro-4-cyclopropylphenyl)-2,3-dihydro-1H-inden-1-yl)azetidine-3-carboxylic acid]"
7,1000 to 10000,"O=C(O)C1CCN(C2CCc3cc(-c4ccc5ocnc5c4)ccc32)CC1 (single isomer, unassigned) [Compound 42, 1-(5-(benzo[d]oxazol-5-yl)-2,3-dihydro-1H-inden-1-yl)piperidine-4-carboxylic acid]"
8,≤ 10,"O=C(O)C1CCN(C2CCc3cc(C#Cc4c(Cl)cccc4Cl)ccc32)CC1 (stereo not drawn) [Compound 1, 1-(5-((2,6-dichlorophenyl)ethynyl)-2,3-dihydro-1H-inden-1-yl)piperidine-4-carboxylic acid]"
9,≤ 10,"O=C(O)C1CCN(C2CCc3cc(CCc4cccc(Cl)c4)ccc32)CC1 (single isomer, unassigned) [Compound 27a, 1-(5-(3-chlorophenethyl)-2,3-dihydro-1H-inden-1-yl)piperidine-4-carboxylic acid]"
10,≤ 10,"O=C(O)C1CCN(C2CCc3cc(-c4ccc(C5CC5)c(Cl)c4)ccc32)CC1 (single isomer, unassigned) [Compound 32b, 1-(5-(3-chloro-4-cyclopropylphenyl)-2,3-dihydro-1H-inden-1-yl)piperidine-4-carboxylic acid]"
11,≤ 10,"O=C(O)C1CN(C2CCc3cc(-c4ccc(C5CC5)c(Cl)c4)ccc32)C1 (single isomer, unassigned) [Compound 30a, 1-(5-(3-chloro-4-cyclopropylphenyl)-2,3-dihydro-1H-inden-1-yl)azetidine-3-carboxylic acid]"
12,10 to 100,"O=C(O)[C@H]1CCN(C2CCc3cc(-c4ccc(C5CC5)c(F)c4)ccc32)C1 (single isomer, unassigned) [Compound 37b]"
13,100 to 1000,"O=C(O)C1CCN(C2CCc3cc(CCc4ccccc4Cl)ccc32)CC1 (single isomer, unassigned) [Compound 25b, 1-(5-(2-chlorophenethyl)-2,3-dihydro-1H-inden-1-yl)piperidine-4-carboxylic acid]"
14,100 to 1000,"O=C(O)C1CCN(C2CCc3cc(-c4ccc(C5CC5)c(Cl)c4)ccc32)CC1 (single isomer, unassigned) [Compound 32a, 1-(5-(3-chloro-4-cyclopropylphenyl)-2,3-dihydro-1H-inden-1-yl)piperidine-4-carboxylic acid]"
